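Step 1: Grow cells in 96-well plates. Step 2: Expose to compound for 48 hours at 5 concentrations. Step 3: Interpolate endpoints linearly; if unreached, use highest concentration. TGI is the concentration that stops growth completely.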
Assays:
Test in all cases: growth of human tumour cells (NCI), 48 h
HOP-62 NSCLC = test system: HOP-62 NSCLC
HT29 colon = test system: HT29 colon
HCT-15 colon = test system: HCT-15 colon
BT-549 breast = test system: BT-549 breast
SK-OV-3 ovarian = test system: SK-OV-3 ovarian
LOX IMVI melanoma = test system: LOX IMVI melanoma
UO-31 renal = test system: UO-31 renal
MALME-3M melanoma = test system: MALME-3M melanoma
MDA-N = test system: MDA-N
SN12C renal = test system: SN12C renal
MDA-MB-435 = test system: MDA-MB-435
K-562 leukemia = test system: K-562 leukemia
COLO 205 colon = test system: COLO 205 colon
OVCAR-4 ovarian = test system: OVCAR-4 ovarian
HCC-2998 colon = test system: HCC-2998 colon
SK-MEL-2 melanoma = test system: SK-MEL-2 melanoma
SR leukemia = test system: SR leukemia
M14 melanoma = test system: M14 melanoma
PC-3 prostate = test system: PC-3 prostate
OVCAR-8 ovarian = test system: OVCAR-8 ovarian

Compound | TGI (HOP-62 NSCLC) | TGI (HT29 colon) | TGI (HCT-15 colon) | TGI (BT-549 breast) | TGI (SK-OV-3 ovarian) | TGI (LOX IMVI melanoma) | TGI (UO-31 renal) | TGI (MALME-3M melanoma) | TGI (MDA-N) | TGI (SN12C renal) | TGI (MDA-MB-435) | TGI (K-562 leukemia) | TGI (COLO 205 colon) | TGI (OVCAR-4 ovarian) | TGI (HCC-2998 colon) | TGI (SK-MEL-2 melanoma) | TGI (SR leukemia) | TGI (M14 melanoma) | TGI (PC-3 prostate) | TGI (OVCAR-8 ovarian)
CC(C)[Si](OC1=C(C(=O)Nc2ccccc2Cl)CCCCC1)(C(C)C)C(C)C | > 100 µM | > 100 µM | > 100 µM | > 100 µM | > 100 µM | > 100 µM | > 100 µM | > 100 µM | > 100 µM | > 100 µM | > 100 µM | > 100 µM | > 100 µM | > 100 µM | > 100 µM | > 100 µM | > 100 µM | > 100 µM | > 100 µM | > 100 µM
N#Cc1c(-c2ccccc2)c(N=Nc2ccc(F)cc2)c(=O)n2c1[nH]c1ccccc12 | 29.3 µM | 12 µM | > 100 µM | 89.2 µM | 31.5 µM | > 100 µM | 20.6 µM | 72.5 µM | 52.9 µM | 10.2 µM | > 100 µM | 17.9 µM | 13 µM | 31.5 µM | > 100 µM | > 100 µM | 55.8 µM | 27.3 µM | > 35.2 µM | 24 µM
CC1(C)C=C(/C=N/Nc2ccc([N+](=O)[O-])cc2)C(C#N)=C(O)C1(C#N)C#N | > 100 µM | > 100 µM | > 100 µM | > 100 µM | > 100 µM | > 100 µM | > 100 µM | > 100 µM | > 100 µM | > 100 µM | > 100 µM | > 100 µM | > 100 µM | > 100 µM | > 100 µM | > 100 µM | > 100 µM | > 100 µM | > 100 µM | > 100 µM
CCOC(=O)C(Cc1c2ccccc2cc2ccccc12)(NC(C)=O)C(=O)OCC | > 100 µM | > 100 µM | > 100 µM | > 100 µM | > 100 µM | > 100 µM | > 100 µM | > 100 µM | > 100 µM | > 100 µM | > 100 µM | > 100 µM | > 100 µM | > 100 µM | > 100 µM | > 100 µM | > 100 µM | > 100 µM | > 100 µM | > 100 µM
C=C1C[C@@H](O)[C@@H](Br)C(C)(C)[C@]12CCC(C)(Cl)C(Br)C2 (stereo not given in full) | > 65.2 µM | > 100 µM | > 100 µM | > 100 µM | > 100 µM | 49.5 µM | > 100 µM | 59.4 µM | > 59.8 µM | 36 µM | > 71.2 µM | > 100 µM | > 33.7 µM | > 100 µM | 35.3 µM | 32.3 µM | > 100 µM | > 100 µM | 8.17 µM | > 100 µM
Cn1c(=O)c2c(no[n+]2[O-])n(C)c1=O | 47.3 µM | > 100 µM | > 100 µM | 51.9 µM | > 100 µM | > 100 µM | 97.1 µM | 40 µM | 50.7 µM | > 100 µM | 38.3 µM | > 100 µM | 43.9 µM | > 100 µM | > 100 µM | > 100 µM | > 100 µM | > 100 µM | > 100 µM | 37 µM
CC(=O)OCCCCn1cnc2nc(Nc3ccccc3)nc(Cl)c21 | > 100 µM | > 100 µM | > 100 µM | > 100 µM | > 100 µM | > 100 µM | > 100 µM | > 100 µM | > 100 µM | > 100 µM | > 100 µM | > 100 µM | > 100 µM | > 100 µM | > 100 µM | > 100 µM | > 100 µM | > 100 µM | > 100 µM | > 100 µM
CCOC(=O)c1sc2nc(SC)nc3c2c1N=CN3c1ccccc1Cl | 32.6 µM | > 100 µM | > 100 µM | > 100 µM | > 100 µM | > 100 µM | > 100 µM | > 100 µM | > 100 µM | > 100 µM | > 100 µM | > 100 µM | > 100 µM | 42.4 µM | > 100 µM | > 100 µM | 89.9 µM | > 100 µM | > 100 µM | > 100 µM
NC1CC(=O)c2c(Cl)sc(Cl)c21 (stereo not given) | 34 µM | 14.1 µM | 3.94 µM | 10.7 µM | 26.4 µM | 4.81 µM | 20.3 µM | 4.66 µM | 16.4 µM | 14.4 µM | 15.5 µM | 75 µM | 2.57 µM | 16 µM | 22.7 µM | 25 µM | 1.99 µM | 35.4 µM | 18 µM | 20 µM
NS(=O)(=O)c1ccc(NNc2c3ccccc3nc3ccccc23)cc1 | 22.4 µM | 13.6 µM | 15.5 µM | 15.1 µM | 24.5 µM | 14.5 µM | 18.1 µM | 15.9 µM | 17.5 µM | 23.1 µM | 17 µM | 19.9 µM | 13.9 µM | 17.2 µM | 17.6 µM | 18.1 µM | 21.4 µM | 15.9 µM | 16.1 µM | 16.6 µM
O=S(=O)(N=S(c1ccc(Cl)cc1)c1ccc(Cl)cc1)c1ccccc1 | > 100 µM | > 100 µM | > 100 µM | > 100 µM | > 100 µM | > 100 µM | > 100 µM | > 100 µM | > 100 µM | > 100 µM | > 100 µM | > 100 µM | > 100 µM | > 100 µM | > 100 µM | > 100 µM | > 100 µM | > 100 µM | > 100 µM | > 100 µM
COC(=O)C(=O)c1c2ccccc2n2ccc3c4ccccc4[nH]c3c12 | > 10 µM | > 10 µM | > 10 µM | > 10 µM | > 10 µM | > 10 µM | > 10 µM | > 10 µM | > 10 µM | > 10 µM | > 10 µM | > 10 µM | > 10 µM | > 10 µM | > 10 µM | > 10 µM | > 10 µM | > 10 µM | > 10 µM | > 10 µM
O=C(c1cccc(OCc2ccccc2)c1OCc1ccccc1)N1CCSC1=S | > 100 µM | > 100 µM | > 100 µM | > 100 µM | > 100 µM | > 100 µM | 97.2 µM | > 72.9 µM | > 100 µM | > 100 µM | > 100 µM | > 100 µM | 26.4 µM | > 100 µM | > 100 µM | > 75.4 µM | 45.2 µM | > 100 µM | > 100 µM | > 100 µM
COC(=O)C1Cc2cccc(C)c2C1 (stereo not given) | > 100 µM | > 100 µM | > 100 µM | > 100 µM | > 100 µM | > 100 µM | > 100 µM | > 100 µM | > 100 µM | > 100 µM | > 100 µM | > 100 µM | > 100 µM | > 100 µM | > 100 µM | > 100 µM | > 100 µM | > 100 µM | > 100 µM | > 100 µM
COC(=O)[C@@H]1C[C@H]([Se]c2ccccc2)CN1S(=O)(=O)c1ccc(C)cc1 | > 100 µM | > 100 µM | > 100 µM | > 100 µM | > 100 µM | > 100 µM | > 100 µM | > 100 µM | > 100 µM | > 100 µM | > 100 µM | > 100 µM | > 100 µM | > 100 µM | > 100 µM | > 100 µM | > 100 µM | > 100 µM | > 100 µM | > 100 µM
Cc1ccc2c(c1)C(=O)C(Cc1ccccc1C(=O)O)C2 (stereo not given) | > 100 µM | > 100 µM | > 100 µM | > 100 µM | > 100 µM | > 100 µM | > 100 µM | > 100 µM | > 100 µM | > 100 µM | > 100 µM | > 100 µM | > 100 µM | > 100 µM | > 100 µM | > 100 µM | > 100 µM | > 100 µM | > 100 µM | > 100 µM
CC1=C2C(=O)OCC23C=COC3(C)O1 (stereo not given) | > 100 µM | > 100 µM | > 100 µM | > 100 µM | > 100 µM | > 100 µM | > 100 µM | 74.5 µM | > 100 µM | > 100 µM | 53.3 µM | > 100 µM | 47.7 µM | > 100 µM | > 100 µM | > 100 µM | > 100 µM | 85.5 µM | > 100 µM | > 100 µM
COc1cccc2c(NNc3ccccc3)c3ccc([N+](=O)[O-])cc3nc12 | > 100 µM | > 100 µM | > 100 µM | 71.4 µM | > 100 µM | > 100 µM | 61 µM | > 100 µM | > 100 µM | > 100 µM | > 100 µM | > 100 µM | > 100 µM | > 100 µM | > 100 µM | > 100 µM | 50.5 µM | > 100 µM | > 100 µM | > 100 µM
CCOC(=O)C(NC(=O)c1ccccc1)(Nc1ccc(S(=O)(=O)Nc2nc(C)cc(C)n2)cc1)C(F)(F)F (stereo not given) | > 100 µM | > 100 µM | > 100 µM | > 100 µM | > 100 µM | > 100 µM | > 100 µM | > 100 µM | > 100 µM | > 100 µM | > 100 µM | > 100 µM | > 100 µM | > 100 µM | > 100 µM | > 100 µM | > 100 µM | > 100 µM | > 100 µM | > 100 µM
